Assay results reported in patent US12691070B2, “Cationic lipids and preparation method thereof” (RiboX Therapeutics HK Limited, priority 2023, dated 2026).

Legend:
[1] = LNP size and polydispersity index (PDI) by dynamic light scattering; assay type: physicochemical; settings: for Size: in nm (unit assumed)
Procedure, shortened: (§1)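 LNPs of ionizable lipid/DSPC/cholesterol/DMG-PEG 2000 (50:10:38.5:1.5) made by microfluidic mixing of luciferase circRNA or mRNA in pH 4.5 acetate with lipids in ethanol (3:1, 12 ml/min), ionizable lipid:nucleotide 15 or 6, then dialyzed against PBS. Size, PDI (DLS) and zeta potential on Zetasizer; encapsulation by Ribogreen ± Triton X-100.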

[2] = LNP zeta potential (Zetasizer); assay type: physicochemical
Procedure, shortened: as §1

[3] = RNA encapsulation efficacy by Quant-IT Ribogreen kit; assay type: physicochemical; settings: for Encapsulation Efficiency %: LNP with cirRNA (SEQ ID NO: 1); for Encapsulation Efficiency: LNP with mRNA (SEQ ID NO: 2)
Procedure, shortened: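 Ribogreen read-out: encapsulation = 100% − (signal of intact RNA-LNPs / signal with Triton X-100). Particles: ionizable lipid:DSPC:Chol:DMG-PEG2000 50:10:38.5:1.5, ionizable lipid:ribonucleotide 15 or 6, final lipid 1.5–6 mM, PBS-dialyzed.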

[4] = tested on: Hep G2 cells; test: In vitro expression of firefly-luciferase, Hep G2; assay type: cell-based
Procedure, shortened: (§2)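 Both cell lines receive RNA-LNPs carrying firefly-luciferase RNA at 100 ng/mL. Lysis follows washing at 72 h post-transfection, and luciferase activity is then quantified on a luminometer using a commercial luciferase assay reagent.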

[5] = tested on: RAW 264.7 cells; test: In vitro expression of firefly-luciferase, RAW 264.7; assay type: cell-based
Procedure, shortened: as §2

[6] = tested on: Hep G2 cells; test: In vitro toxicity (CellTiter-Glo cell viability), Hep G2; assay type: cell-based;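 also: percent of untreated cells luminescence signal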
Procedure, shortened: (§3)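 Cells were transfected with RNA-LNPs at 1 μg/mL and, 72 hours later, viability was measured by CellTiter-Glo luminescence. Values are cell viability calculated from the luminescence signal.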

[7] = tested on: RAW 264.7 cells; test: In vitro toxicity (CellTiter-Glo cell viability), RAW 264.7; assay type: cell-based;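 also: percent of untreated cells luminescence signal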
Procedure, shortened: as §3

[8] = tested on: BALB/C mice; test: In vivo expression, whole-body luminescence (IVIS)
Method: 6-8 week old, female BALB/C mice were injected with 0.05 mg*kg-1 of RNA-LNPs encoding for firefly-luciferase by intravenous injection. At 6 hours post injection, animals were intraperitoneally injected with 15 mg/ml of Luciferin substrate and whole-body luminescence was determined by a bioluminescent in vivo imaging system (IVIS).

[9] = tested on: MCP-I; test: MCP-I cytokine elevation in serum; assay type: in vivo; settings: cirRNA (SEQ ID NO: 1) LNPs, mice
Method: 6-8 week old, female BALB/C mice were injected with 0.5 mg*kg-1 of RNA LNPs by intravenous injection. At 2 and 24 hours post injection, animals were bled and sera concentrations of MCP-I were determined by an immunoassay (Luminex).

[10] = tested on: Alanine Aminotransferase (ALT); test: Liver enzyme elevation in serum, ALT; assay type: in vivo; settings: cirRNA (SEQ ID NO: 1) LNPs, BALB/C mice, intravenous 0.5 MPK
Method: (§4) 6-8 week old, female BALB/C mice were injected with 0.5 mg*kg-1 of RNA LNPs by intravenous injection. At 2 and 24 hours post injection, animals were bled and sera concentrations of Alanine Aminotransferase (ALT) and Aspartate Aminotransferase (AST) were determined by a blood chemistry analyzer.

[11] = tested on: Aspartate Aminotransferase (AST); test: Liver enzyme elevation in serum, AST; assay type: in vivo; settings: cirRNA (SEQ ID NO: 1) LNPs, BALB/C mice, intravenous 0.5 MPK
Method: as §4

[12] = tested on: BALB/C mice; test: Local tolerance determination by footpad injection; assay type: in vivo; settings: cirRNA (SEQ ID NO: 1) LNP, 0.175 mg*kg-1 subcutaneous into the footpad, 24 hours post minus prior
Method: 6-8 week old, female BALB/C mice were injected with 0.175 mg*kg-1 RNA LNPs by subcutaneous injection into the footpad. Prior to, and 24 hours post injections, injected footpad thickness was determined by a caliper.

[13] = cirRNA (SEQ ID NO: 1) LNPs, firefly-luciferase luminescence, Hep G2 cells
[14] = mRNA (SEQ ID NO: 2) LNP, 100 ng/mL, 72 hours post transfection, luciferase activity
[15] = cirRNA (SEQ ID NO: 1) LNPs, firefly-luciferase luminescence, RAW 264.7 cells
[16] = cirRNA (SEQ ID NO: 1) LNPs, Hep G2 cells
[17] = mRNA (SEQ ID NO: 2) LNP, 1 μg/mL, 72 hours post transfection
[18] = cirRNA (SEQ ID NO: 1) LNPs, RAW 264.7 cells
[19] = cirRNA (SEQ ID NO: 1) LNPs, BALB/C mice
[20] = mRNA (SEQ ID NO: 2) LNP, 0.05 mg*kg-1 intravenous, 6 hours post injection

| Structure (SMILES) | PDI ([1]; LNP with cirRNA (SEQ ID NO: 1)) | Size ([1]; LNP with cirRNA (SEQ ID NO: 1)) | PDI ([1]; LNP with mRNA (SEQ ID NO: 2)) | Size ([1]; LNP with mRNA (SEQ ID NO: 2)) | Zeta (mV) ([2]; LNP with cirRNA (SEQ ID NO: 1)) | Zeta (mV) ([2]; LNP with mRNA (SEQ ID NO: 2)) | Encapsulation Efficiency % [3] | Encapsulation Efficiency [3] | In vitro Expression HepG2 [4, 13] | In vitro Expression HepG2 [4, 14] | In vitro Expression RAW [5, 15] | In vitro Expression RAW [5, 14] | In vitro Viability HepG2 [6, 16] | In vitro Viability HepG2 [6, 17] | In vitro Viability RAW [7, 18] | In vitro Viability RAW [7, 17] | In vivo Expression (Whole Body) [8, 19] | In vivo Expression (Whole Body) [8, 20] | MCP-I in Sera 2 hours After 0.5 MPK Injection [9] | ALT in Sera (IU/L) 2 hours After 0.5 MPK Injection [10] | also measured |
| --- | --- | --- | --- | --- | --- | --- | --- | --- | --- | --- | --- | --- | --- | --- | --- | --- | --- | --- | --- | --- | --- |
| CCCCCCCCC(CCCCCCCC)OC(=O)CCCCCCCN(CCCCCCCCOC(=O)C(CCCCCC)CCCCCCCC)CCOC(=O)NCCN(C)C (stereo not drawn) [Lipid 66, heptadecan-9-yl 10-(8-((2-hexyldecanoyl)oxy)octyl)-2-methyl-6-oxo-7-oxa-2,5,10-triazaoctadecan-18-oate] | 0.05 | 86.66 | 0.09823 | 75.46 | −2.1 mV | 2.213 mV | 96% | 88.25% | 9.78E+07 | 1.59E+08 | 9.90E+06 | 6.79E+06 | 93% | 82% | 100% | 72% | 2.03E+09 | 3.50E+09 | 7911.52 pg/mL | 51.97 IU/L | MCP-I in Sera 24 hours After 0.5 MPK Injection [9]: 448.43 pg/mL; ALT in Sera (IU/L) 24 hours After 0.5 MPK Injection [10]: 63.6 IU/L; AST in Sera (IU/L) 2 hours After 0.5 MPK Injection [11]: 176.40 IU/L; AST in Sera (IU/L) 24 hours After 0.5 MPK Injection [11]: 148.60 IU/L; Footpad Thickness (24 h−0 h, mm) [12]: 1.43 mm |
| CCCCC/C=C\C/C=C\CCCCCCCCN(CCCCCCCC/C=C\CCCCCCCC)CCOC(=O)NCc1ncc[nH]1 [Lipid 68, 2-(((Z)-octadec-9-en-1-yl)((9Z,12Z)-octadeca-9,12-dien-1-yl)amino)ethyl ((1H-imidazol-2-yl)methyl)carbamate] | 0.12 | 57.94 | 0.1057 | 61.9 | −0.647 mV | 5.641 mV | 92% | 88% | 2.63E+06 | 3.74E+03 | 6.86E+05 | 5.58E+02 | 99% | 100% | 67% | 104% | 1.34E+08 | 1.54E+08 | 129.34 pg/mL | 40.77 IU/L | ALT in Sera (IU/L) 24 hours After 0.5 MPK Injection [10]: 33.37 IU/L; AST in Sera (IU/L) 2 hours After 0.5 MPK Injection [11]: 81.27 IU/L; AST in Sera (IU/L) 24 hours After 0.5 MPK Injection [11]: 60.20 IU/L; Footpad Thickness (24 h−0 h, mm) [12]: 1.00 mm |
| CCCCC/C=C\C/C=C\CCCCCCCCN(CCCCCC(=O)OCC(CCCCCCCC)CCCCCCCCCC)CCOC(=O)NCCN(C)C (stereo not drawn) [Lipid 75, 2-octyldodecyl 2-methyl-10-((9Z,12Z)-octadeca-9,12-dien-1-yl)-6-oxo-7-oxa-2,5,10-triazahexadecan-16-oate] | 0.13 | 91.13 | 0.1903 | 70.28 | 1.59 mV | 13.66 mV | 97% | 89% | 1.94E+06 | 9.23E+06 | 2.08E+06 | 2.18E+06 | 85% | 95% | 75% | 96% | 9.85E+08 | 4.22E+08 | 8335.00 pg/mL | 111.37 IU/L | MCP-I in Sera 24 hours After 0.5 MPK Injection [9]: 93.14 pg/mL; ALT in Sera (IU/L) 24 hours After 0.5 MPK Injection [10]: 48.97 IU/L; AST in Sera (IU/L) 2 hours After 0.5 MPK Injection [11]: 279.87 IU/L; AST in Sera (IU/L) 24 hours After 0.5 MPK Injection [11]: 94.83 IU/L; Footpad Thickness (24 h−0 h, mm) [12]: 0.85 mm |
| CCCCC/C=C\C/C=C\CCCCCCCCN(CCCCCC(=O)OCCCCCCCCCCC)CCOC(=O)NCc1ncc[nH]1 [Lipid 90, undecyl 6-((2-((((1H-imidazol-2-yl)methyl)carbamoyl)oxy)ethyl)((9Z,12Z)-octadeca-9,12-dien-1-yl)amino)hexanoate] | 0.06 | 67.68 | 0.06127 | 65.54 | 1.34 mV | 7.6 mV | 87% | 88% | 1.27E+05 | 2.16E+05 | 8.50E+04 | 1.21E+05 | 95% | 85% | 24% | 96% | 8.80E+07 | 2.73E+07 | 153.05 pg/mL | 40.57 IU/L | MCP-I in Sera 24 hours After 0.5 MPK Injection [9]: 33.08 pg/mL; ALT in Sera (IU/L) 24 hours After 0.5 MPK Injection [10]: 37.87 IU/L; AST in Sera (IU/L) 2 hours After 0.5 MPK Injection [11]: 77.50 IU/L; AST in Sera (IU/L) 24 hours After 0.5 MPK Injection [11]: 64.70 IU/L; Footpad Thickness (24 h−0 h, mm) [12]: 0.20 mm |
